According to patent US6753024B2, “Method for making a food preservative and for preserving food” (The United States of America as represented by the …, priority 2002, dated 2004):

System: Micrococcus luteus ATCC 10240
Experiment: Inhibition of test bacteria by nisin produced in fermented poi
Format: cell-based
Details: nisin produced by Lactococcus lactis subspecies lactis ATCC 11454 in taro; test bacteria known to cause food spoilage
Text: The nisin inhibits a test bacteria, Micrococcus luteus ATCC 10240, known to cause food spoilage. Thus, the Lactococcus lactis subspecies lactis ATCC 11454 grows in the taro and produces a bacteriocin therein.

nisin
inhibition of test bacteria: inhibits
